The values that follow come from ChEMBL document CHEMBL1201862, “PubChem BioAssay data set” (2004).

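Compound exposure: 48 hours, 5 concentrations, 96-well plates. Abbreviation: GI50, concentration required for 50% inhibition of growth.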 The source made the active and inactive calls. Rule as the data show it: active = GI50 up to about 1.1 µM and inactive = higher.

Some test systems named below: 786-0; ACHN; CAKI-1; COLO 205; EKVX; HCT-15; HOP-62; KM12; NCI-H23; OVCAR-3; OVCAR-4; OVCAR-8; RPMI-8226; RXF 393; SF-295; SF-539; SNB-75; U-251; UACC-62.
Common to all, as to test: NCI tumour cell line growth inhibition, 48 h

Consider `CN(CCO)c1nc(=O)c2c([nH]1)CCC2`, for which the GI50 in the assay with 786-0 is > 100 µM (inactive); in the assay with ACHN, > 100 µM (inactive); in the assay on CAKI-1, > 100 µM (inactive); in the assay on COLO 205, > 100 µM (inactive); with EKVX it was > 100 µM (inactive); in the assay with HCT-15, greater than 100 µM. The GI50 with HOP-62, in the assay with KM12, in the assay with NCI-H23, with OVCAR-3, in the assay on OVCAR-4 and in the assay with OVCAR-8 was > 100 µM (inactive) in each case. For the same compound, the GI50 was > 100 µM (inactive) in the assay with RPMI-8226; > 100 µM (inactive) in the assay with RXF 393; > 100 µM (inactive) in the assay with SF-295; > 100 µM (inactive) with SF-539; 43.9 µM (inactive) in the assay with SNB-75; > 100 µM (inactive) in the assay on U-251. The GI50 in the assay on UACC-62 was > 100 µM (inactive).

Turning to `CCCCN(CCCC)C(=O)C(=O)C(C#N)c1ccc(C)cc1` (stereo not given), the GI50 is > 100 µM (inactive) in the assay with 786-0; > 100 µM (inactive) with ACHN; > 100 µM (inactive) in the assay with CAKI-1; > 100 µM (inactive) with EKVX; greater than 100 µM with HCT-15; > 100 µM (inactive) with HOP-62. The GI50 in the assay with KM12, with NCI-H23, in the assay with OVCAR-3, with OVCAR-4, in the assay with OVCAR-8 and in the assay with RPMI-8226 was > 100 µM (inactive) throughout. Moreover, the GI50 in the assay with RXF 393, in the assay on SF-295, with SF-539, in the assay with SNB-75, in the assay on U-251 and with UACC-62 was > 100 µM (inactive) throughout.

As for `COC1=CC(=O)c2ccccc2C1(CCC=C(C)C)C1=NC(C)(C)CO1` (stereo not given), the GI50 in the assay on 786-0 is > 100 µM (inactive); in the assay on ACHN, 6.62 µM (inactive); in the assay with CAKI-1, > 100 µM (inactive); in the assay with COLO 205, > 100 µM (inactive); in the assay with EKVX, 71.8 µM (inactive); in the assay with HCT-15, 61.1 µM. In addition, the GI50 in the assay on HOP-62 was > 100 µM (inactive); in the assay with KM12, > 100 µM (inactive); in the assay with NCI-H23, 91.2 µM (inactive); in the assay with OVCAR-3, > 100 µM (inactive); in the assay on OVCAR-4, 71.9 µM (inactive); in the assay with OVCAR-8, 70.8 µM (inactive). Besides, the GI50 was 32.2 µM (inactive) with RPMI-8226; 56.4 µM (inactive) with RXF 393; 55.5 µM (inactive) in the assay with SF-295; > 100 µM (inactive) with SF-539; > 100 µM (inactive) in the assay on SNB-75; 80.4 µM (inactive) in the assay on U-251. In addition, in the assay on UACC-62, the GI50 is > 100 µM (inactive).

With `CCC1=CCN(c2cc(C)ccn2)OC1c1ccc(OC)cc1` (stereo not given), the GI50 in the assay with 786-0 is 34.8 µM (inactive); in the assay on ACHN it was 33.5 µM (inactive); with CAKI-1, 34.4 µM (inactive); with COLO 205, 16.3 µM (inactive); in the assay on EKVX, 40.6 µM (inactive); in the assay with HCT-15 it was 27.3 µM. Moreover, the GI50 with HOP-62 was 44.3 µM (inactive); in the assay with KM12 it was 31.2 µM (inactive); in the assay on NCI-H23 it was 34 µM (inactive); with OVCAR-3, 42.7 µM (inactive); in the assay on OVCAR-4, 34.8 µM (inactive); in the assay with OVCAR-8, 32.8 µM (inactive). Moreover, the GI50 in the assay with RPMI-8226 was 22.6 µM (inactive); with RXF 393, 22.3 µM (inactive); in the assay on SF-295 it was 22.2 µM (inactive); with SF-539, > 10 µM (inactive); in the assay with SNB-75 it was 33.7 µM (inactive); in the assay on U-251, 21.5 µM (inactive). Also, in the assay on UACC-62, the GI50 is 29.4 µM (inactive).

In the case of `CC1C=CC(=O)C(n2cc(F)c(=O)[nH]c2=O)O1` (stereo not given), the GI50 in the assay with 786-0 is 16 µM (inactive); with ACHN, 20 µM (inactive); in the assay on CAKI-1, 11.6 µM (inactive); with COLO 205 it was 20.1 µM (inactive); with EKVX it was 22.5 µM (inactive); in the assay with HCT-15 it was 16.6 µM. Also, the GI50 in the assay on HOP-62 was 20.8 µM (inactive); in the assay on NCI-H23 it was 18.1 µM (inactive); in the assay with OVCAR-3 it was 17.3 µM (inactive); in the assay on OVCAR-4, 18.5 µM (inactive); in the assay with OVCAR-8, 22.4 µM (inactive); with RPMI-8226 it was 14.4 µM (inactive). Moreover, the GI50 with RXF 393 was 19.8 µM (inactive); in the assay with SF-295 it was > 10 µM (inactive); in the assay with SF-539, 17.2 µM (inactive); in the assay with SNB-75, 18.8 µM (inactive); in the assay with U-251, 15.7 µM (inactive); with UACC-62, 16.2 µM (inactive).

For the compound `C=CCNC1=NC(=O)C(CC(=O)Nc2cccc(Cl)c2)S1` (stereo not given), the GI50 in the assay with 786-0 is > 100 µM (inactive); with ACHN it was > 100 µM (inactive); with CAKI-1, > 100 µM (inactive); with COLO 205 it was > 100 µM (inactive); with EKVX, > 100 µM (inactive); in the assay on HCT-15 it was greater than 100 µM. The GI50 in the assay on HOP-62, with KM12, in the assay with NCI-H23, in the assay with OVCAR-3, in the assay on OVCAR-4 and in the assay with OVCAR-8 was > 100 µM (inactive) in each case. Also, the GI50 with RPMI-8226, in the assay with RXF 393, with SF-295, with SF-539, in the assay with SNB-75 and in the assay with U-251 was > 100 µM (inactive) throughout. In addition, the GI50 with UACC-62 was > 100 µM (inactive).

Regarding `CC(=O)OC(C)(C)C[N+](=O)[O-]`, the GI50 in the assay on 786-0 was > 100 µM (inactive); in the assay with ACHN, > 100 µM (inactive); with CAKI-1 it was > 100 µM (inactive); in the assay with COLO 205 it was > 100 µM (inactive); in the assay with EKVX it was > 100 µM (inactive); in the assay with HCT-15 it was greater than 100 µM. For the same compound, the GI50 with HOP-62 is > 100 µM (inactive); in the assay with KM12, > 100 µM (inactive); in the assay with NCI-H23, > 100 µM (inactive); in the assay on OVCAR-3, > 100 µM (inactive); in the assay with OVCAR-4 it was 20 µM (inactive); in the assay with OVCAR-8, > 100 µM (inactive). Moreover, the GI50 in the assay on RPMI-8226, in the assay on RXF 393, in the assay with SF-295, with SF-539, with SNB-75 and with U-251 was > 100 µM (inactive) throughout.

For the compound `COC(=O)C1=C2CCC(=O)[C@@]2(C)C(OC(C)=O)C=CC1` (stereo not given in full), the GI50 with 786-0 is > 100 µM (inactive); in the assay with ACHN it was > 100 µM (inactive); with CAKI-1, > 100 µM (inactive); in the assay on EKVX, > 100 µM (inactive); with HCT-15, 29.5 µM; in the assay with HOP-62, > 100 µM (inactive). Also, the GI50 was > 100 µM (inactive) in the assay with KM12; 76.9 µM (inactive) in the assay with NCI-H23; 53.6 µM (inactive) with OVCAR-3; > 100 µM (inactive) in the assay on OVCAR-4; 43 µM (inactive) in the assay with OVCAR-8; 34.6 µM (inactive) with RPMI-8226. Moreover, the GI50 is > 100 µM (inactive) in the assay on RXF 393; 37.1 µM (inactive) in the assay on SF-295; 49.3 µM (inactive) with SF-539; 56.8 µM (inactive) in the assay with SNB-75; 59.6 µM (inactive) with U-251; 76.6 µM (inactive) in the assay with UACC-62.

Turning to `Cn1cnc([N+](=O)[O-])c1Sc1nc2cc([N+](=O)[O-])ccc2[nH]1`, the GI50 in the assay on 786-0 is 42.4 µM (inactive); in the assay with ACHN it was 36.5 µM (inactive); in the assay with CAKI-1, 12.6 µM (inactive); with COLO 205 it was 10.4 µM (inactive); with EKVX it was 10.5 µM (inactive); in the assay on HCT-15, 13.5 µM. The GI50 in the assay on HOP-62 was > 100 µM (inactive); in the assay on KM12 it was 34.9 µM (inactive); in the assay on NCI-H23 it was 23.8 µM (inactive); in the assay with OVCAR-3 it was 37.9 µM (inactive); in the assay with OVCAR-4 it was 46.6 µM (inactive); with OVCAR-8, 14.7 µM (inactive). Besides, the GI50 is 21.6 µM (inactive) in the assay on RPMI-8226; 17.5 µM (inactive) in the assay with RXF 393; > 100 µM (inactive) in the assay with SF-295; 19.1 µM (inactive) in the assay on SF-539; 26.2 µM (inactive) with SNB-75; 27 µM (inactive) with U-251. Further, in the assay on UACC-62, the GI50 is 11.9 µM (inactive).

As for `CCCCc1ccc(-n2c3nc(=O)n(C)c(=O)c-3nc3ccccc32)cc1`, the GI50 in the assay with 786-0 is 16.3 µM (inactive); with ACHN, 10.7 µM (inactive); in the assay on CAKI-1, 18.4 µM (inactive); in the assay on COLO 205, 3.09 µM (inactive); in the assay with EKVX it was 4.05 µM (inactive); in the assay with HCT-15 it was 6.35 µM. Moreover, the GI50 was 18.2 µM (inactive) with HOP-62; 11.2 µM (inactive) in the assay with KM12; 2.37 µM (inactive) with NCI-H23; 2.86 µM (inactive) with OVCAR-3; 8 µM (inactive) with OVCAR-4; 7.57 µM (inactive) in the assay on OVCAR-8. Besides, the GI50 in the assay on RPMI-8226 was 13.7 µM (inactive); with RXF 393 it was 18.4 µM (inactive); in the assay on SF-295, 11.1 µM (inactive); in the assay with SF-539, 14.1 µM (inactive); in the assay with SNB-75, 15.3 µM (inactive); in the assay with U-251, 10.6 µM (inactive). Also, the GI50 in the assay with UACC-62 was 1.77 µM (inactive).

For `[O-][n+]1ccccc1S` [PYRITHIONE ZINC], the GI50 is 0.343 µM (active) in the assay on 786-0; 3.21 µM (inactive) in the assay with ACHN; 5.13 µM (inactive) in the assay on CAKI-1; 0.625 µM (active) in the assay on COLO 205; 2.98 µM (inactive) in the assay with EKVX; 0.577 µM with HCT-15. Further, the GI50 in the assay with HOP-62 is 4.34 µM (inactive); in the assay with KM12 it was 1.38 µM (inactive); in the assay with NCI-H23, 1.21 µM (inactive); in the assay with OVCAR-3, 0.304 µM (active); with OVCAR-4, 0.542 µM (active); in the assay with OVCAR-8, 3.01 µM (inactive). The GI50 in the assay with RPMI-8226 was 0.1 µM (active); in the assay on RXF 393, 0.135 µM (active); in the assay with SF-295 it was 4.46 µM (inactive); with SF-539, 1.97 µM (inactive); with SNB-75, 3.03 µM (inactive); in the assay on U-251, 1.34 µM (inactive). The GI50 in the assay on UACC-62 is 0.604 µM (active).
